Reference: article PMC9232501, “Results of the phase I CCTG IND.231 trial of CX-5461 in patients with advanced solid tumors enriched for DNA-repair deficiencies” (Nature Communications, 2022)
Values joined by “and” are separate entries in the source; they are usually repeats but may differ in a detail not shown here. Identical values can stand only once.

Tested on: HCT116 cells
Assay: HCT116 cytotoxicity (WST-1 assay) with and without UVA radiation
Assay type: cell-based, Human
Conditions: for potentiation of UVA-induced cytotoxicity: UV 5 mJ/cm^2 and 125 mJ/cm^2; for WST-1 raw signal (Figure 5d) / WST-1 raw signal (Figure 5b) / WST-1 raw signal (Figure 5e): replicates
Protocol: Fig. 5 Comparison of G4 ligand photosensitization. […] Vertical axis, fractional survival, horizontal axis log10 drug concentration (M) (f) Representative images of CPD immunofluorescent staining under UV and drug treatment conditions for U2OS cells, quantified from biological duplicates in (g) (h) Scale bar = 100um. U2OS cells were treated with drug or vehicle control, then immediately irradiated with UVA 125 mJ/cm^2; and fixed 1 h later for immunofluorescence staining with CPD antibody. g Distribution of mean intensity of CPD level per cell (total n = in labels), with two biological repeats per condition. Vertical axis, mean CPD intensity per cell, horizontal axis, conditions (h) WT or KO XPA HAP1 cells assayed for cytotoxicity. Vertical axis, fractional survival (WST-1 assay). The horizontal axis, log10 drug concentration (M). Error bars = standard deviation of the mean. Three biological repeats per condition.
Human epidermal keratinocytes (HEKa) cells were sourced from Thermo Fisher Scientific, and were grown in EpiLife™ Medium with HKGS. HAP WT and XPA knockout cell lines (Horizon Discovery) were cultured in IMDM, 10% FCS. Human HCT116 cells, U2OS cells (ATCC) were grown in McCoy’s 5 A medium with 10% FBS and L-glutamine. All cell lines are mycoplasma free and have been authenticated by STR or SNP profiling. CX-5461 was provided by Senhwa Biosciences, Inc. PDS is from Sigma-Aldrich, BRACO-19 from Alfa Chemistry, PhENDC3 is from Sigma-Aldrich, γ -H2AX antibody from Abcam (1:1000 for IF) and CPD antibody (1:1500) from Cosmo Bio Ltd. (Catalog number: CAC-NM-DAD-001). The WST-1 assay was performed as previously described, γ H2AX foci staining was performed as previously described. Immunofluorescence staining of CPD was performed according to the protocol from the manufacturer (Cosmo Bio Ltd).

CN(C)c1ccc(Nc2c3ccc(NC(=O)CCN4CCCC4)cc3nc3cc(NC(=O)CCN4CCCC4)ccc23)cc1 [BRACO-19]
potentiation of UVA-induced cytotoxicity: not
WST-1 raw signal (Figure 5d) (conc 1.31e-6, 5mJ/cm2 UV): 2.4666 and 1.6857
WST-1 raw signal (Figure 5d) (conc 1.31e-6, 125mJ/cm2 UV): 1.7146 and 2.5235
WST-1 raw signal (Figure 5d) (conc 1.31e-6, no UV): 1.0028 and 1.1127 and 1.1944
WST-1 raw signal (Figure 5d) (conc 2.63e-6, 5mJ/cm2 UV): 1.5923 and 2.1232
WST-1 raw signal (Figure 5d) (conc 2.63e-6, 125mJ/cm2 UV): 1.7241 and 1.9009
WST-1 raw signal (Figure 5d) (conc 2.63e-6, no UV): 1.0332 and 1.1578 and 1.2506
WST-1 raw signal (Figure 5d) (conc 5.25e-6, 5mJ/cm2 UV): 2.5376 and 1.7122
WST-1 raw signal (Figure 5d) (conc 5.25e-6, 125mJ/cm2 UV): 1.8158 and 1.6795
WST-1 raw signal (Figure 5d) (conc 5.25e-6, no UV): 0.8877 and 1.1208 and 1.1731
WST-1 raw signal (Figure 5d) (conc 1.05e-5, 5mJ/cm2 UV): 2.0499 and 1.7849
WST-1 raw signal (Figure 5d) (conc 1.05e-5, 125mJ/cm2 UV): 1.734 and 1.5629
WST-1 raw signal (Figure 5d) (conc 1.05e-5, no UV): 0.9118 and 1.1353 and 1.1139
WST-1 raw signal (Figure 5d) (conc 2.1e-5, 5mJ/cm2 UV): 2.2151 and 1.3748
WST-1 raw signal (Figure 5d) (conc 2.1e-5, 125mJ/cm2 UV): 1.3993 and 1.3857
WST-1 raw signal (Figure 5d) (conc 2.1e-5, no UV): 0.9051 and 1.0979 and 1.0693
WST-1 raw signal (Figure 5d) (conc 4.2e-5, 5mJ/cm2 UV): 1.7663 and 1.2587
WST-1 raw signal (Figure 5d) (conc 4.2e-5, 125mJ/cm2 UV): 1.2502 and 1.0049
WST-1 raw signal (Figure 5d) (conc 4.2e-5, no UV): 0.8968 and 1.0934 and 1.1351
WST-1 raw signal (Figure 5d) (conc 8.4e-5, 5mJ/cm2 UV): 0.4969 and 0.3888
WST-1 raw signal (Figure 5d) (conc 8.4e-5, 125mJ/cm2 UV): 0.4246 and 0.5991
WST-1 raw signal (Figure 5d) (conc 8.4e-5, no UV): 0.3873 and 0.5407 and 0.5015
WST-1 raw signal (Figure 5d) (conc 1.64E-07, 5mJ/cm2 UV): 2.3685 and 1.9812
WST-1 raw signal (Figure 5d) (conc 1.64E-07, 125mJ/cm2 UV): 1.617 and 1.4273
WST-1 raw signal (Figure 5d) (conc 1.64E-07, no UV): 1.0063 and 1.0872 and 1.153
WST-1 raw signal (Figure 5d) (conc 3.28E-07, 5mJ/cm2 UV): 1.3974 and 1.689
WST-1 raw signal (Figure 5d) (conc 3.28E-07, 125mJ/cm2 UV): 1.2981 and 1.6967
WST-1 raw signal (Figure 5d) (conc 3.28E-07, no UV): 0.8955 and 1.1379 and 1.1636
WST-1 raw signal (Figure 5d) (conc 6.56E-07, 5mJ/cm2 UV): 2.2078 and 2.2342
WST-1 raw signal (Figure 5d) (conc 6.56E-07, 125mJ/cm2 UV): 1.8184 and 2.0816
WST-1 raw signal (Figure 5d) (conc 6.56E-07, no UV): 1.0072 and 1.1785 and 1.064

CN1CCC[C@H]1CCNC(=O)c1cn2c3c(c(N4CCC(c5cnccn5)C4)c(F)cc3c1=O)Oc1cc3ccccc3cc1-2 (stereo partly shown) [CX-3543, quarfloxin]
potentiation of UVA-induced cytotoxicity: Strong potentiation
WST-1 raw signal (Figure 5b) (conc 1.00E-07, 5mJ/cm2 UV): 0.1176 and 0.1409 and 0.1492
WST-1 raw signal (Figure 5b) (conc 1.00E-07, 125mJ/cm2 UV): 0.1326 and 0.1388 and 0.1325
WST-1 raw signal (Figure 5b) (conc 1.00E-07, no UV): 0.3065 and 0.2985 and 0.3333
WST-1 raw signal (Figure 5b) (conc 1.25E-08, 5mJ/cm2 UV): 0.2437 and 0.3248 and 0.2269
WST-1 raw signal (Figure 5b) (conc 1.25E-08, 125mJ/cm2 UV): 0.1256 and 0.1309 and 0.1293
WST-1 raw signal (Figure 5b) (conc 1.25E-08, no UV): 0.9466 and 1.0534 and 1.1298
WST-1 raw signal (Figure 5b) (conc 1.56E-09, 5mJ/cm2 UV): 0.8994 and 0.9603 and 1.0971
WST-1 raw signal (Figure 5b) (conc 1.56E-09, 125mJ/cm2 UV): 0.4201 and 0.4656 and 0.3751
WST-1 raw signal (Figure 5b) (conc 1.56E-09, no UV): 1.1359 and 1.1204 and 1.1484
WST-1 raw signal (Figure 5b) (conc 2.00E-07, 5mJ/cm2 UV): 0.1365 and 0.1282 and 0.1322
WST-1 raw signal (Figure 5b) (conc 2.00E-07, 125mJ/cm2 UV): 0.1395 and 0.1322 and 0.1311
WST-1 raw signal (Figure 5b) (conc 2.00E-07, no UV): 0.2081 and 0.2189 and 0.1938
WST-1 raw signal (Figure 5b) (conc 2.50E-08, 5mJ/cm2 UV): 0.2095 and 0.1617 and 0.1535
WST-1 raw signal (Figure 5b) (conc 2.50E-08, 125mJ/cm2 UV): 0.1433 and 0.1378 and 0.1358
WST-1 raw signal (Figure 5b) (conc 2.50E-08, no UV): 0.8495 and 0.8987 and 0.779
WST-1 raw signal (Figure 5b) (conc 3.13E-09, 5mJ/cm2 UV): 0.6485 and 0.7419 and 0.9883
WST-1 raw signal (Figure 5b) (conc 3.13E-09, 125mJ/cm2 UV): 0.2369 and 0.2535 and 0.2676
WST-1 raw signal (Figure 5b) (conc 3.13E-09, no UV): 1.0174 and 1.1372 and 1.1113
WST-1 raw signal (Figure 5b) (conc 3.91E-10, 5mJ/cm2 UV): 1.0118 and 0.9721 and 1.5038
WST-1 raw signal (Figure 5b) (conc 3.91E-10, 125mJ/cm2 UV): 0.8661 and 1.1363 and 0.97
WST-1 raw signal (Figure 5b) (conc 3.91E-10, no UV): 1.0197 and 1.049 and 1.1065
WST-1 raw signal (Figure 5b) (conc 5.00E-08, 5mJ/cm2 UV): 0.1533 and 0.1449 and 0.1376
WST-1 raw signal (Figure 5b) (conc 5.00E-08, 125mJ/cm2 UV): 0.1545 and 0.1405 and 0.1347
WST-1 raw signal (Figure 5b) (conc 5.00E-08, no UV): 0.5561 and 0.5613 and 0.5776
WST-1 raw signal (Figure 5b) (conc 6.25E-09, 5mJ/cm2 UV): 0.5204 and 0.5393 and 0.4087
WST-1 raw signal (Figure 5b) (conc 6.25E-09, 125mJ/cm2 UV): 0.1582 and 0.1598 and 0.1609
WST-1 raw signal (Figure 5b) (conc 6.25E-09, no UV): 1.0374 and 1.1818 and 1.0522
WST-1 raw signal (Figure 5b) (conc 7.81E-10, 5mJ/cm2 UV): 0.7587 and 1.1105 and 1.4362
WST-1 raw signal (Figure 5b) (conc 7.81E-10, 125mJ/cm2 UV): 0.5029 and 0.7057 and 0.876
WST-1 raw signal (Figure 5b) (conc 7.81E-10, no UV): 1.0762 and 1.1392 and 1.1311

C[n+]1cc(NC(=O)c2ccc3ccc4ccc(C(=O)Nc5cc6ccccc6[n+](C)c5)nc4c3n2)cc2ccccc21 [PhenDC3]
potentiation of UVA-induced cytotoxicity: not
WST-1 raw signal (Figure 5e) (conc 1.47e-6, 5mJ/cm2 UV): 2.5247 and 1.9665 and 1.5331
WST-1 raw signal (Figure 5e) (conc 1.47e-6, 125mJ/cm2 UV): 2.2675 and 1.9844 and 1.1454
WST-1 raw signal (Figure 5e) (conc 1.47e-6, no UV): 1.3654 and 1.4935 and 1.7286
WST-1 raw signal (Figure 5e) (conc 2.94e-6, 5mJ/cm2 UV): 2.08 and 2.2029 and 1.6368
WST-1 raw signal (Figure 5e) (conc 2.94e-6, 125mJ/cm2 UV): 2.4823 and 2.523 and 1.7852
WST-1 raw signal (Figure 5e) (conc 2.94e-6, no UV): 1.5405 and 2.117 and 2.002
WST-1 raw signal (Figure 5e) (conc 5.88e-6, 5mJ/cm2 UV): 2.4037 and 2.2391 and 1.6885
WST-1 raw signal (Figure 5e) (conc 5.88e-6, 125mJ/cm2 UV): 2.7023 and 2.4336 and 1.5283
WST-1 raw signal (Figure 5e) (conc 5.88e-6, no UV): 1.7 and 1.9567 and 2.1724
WST-1 raw signal (Figure 5e) (conc 1.18e-5, 5mJ/cm2 UV): 2.1812 and 1.9738 and 1.7421
WST-1 raw signal (Figure 5e) (conc 1.18e-5, 125mJ/cm2 UV): 2.7227 and 2.5018 and 2.3037
WST-1 raw signal (Figure 5e) (conc 1.18e-5, no UV): 1.7648 and 1.8678 and 1.9824
WST-1 raw signal (Figure 5e) (conc 2.35e-5, 5mJ/cm2 UV): 0.565 and 0.559 and 0.471
WST-1 raw signal (Figure 5e) (conc 2.35e-5, 125mJ/cm2 UV): 0.7287 and 0.5914 and 0.574
WST-1 raw signal (Figure 5e) (conc 2.35e-5, no UV): 0.8347 and 0.741 and 0.6679
WST-1 raw signal (Figure 5e) (conc 4.7e-5, 5mJ/cm2 UV): 0.2348 and 0.2033 and 0.2076
WST-1 raw signal (Figure 5e) (conc 4.7e-5, 125mJ/cm2 UV): 0.1706 and 0.1911 and 0.2089
WST-1 raw signal (Figure 5e) (conc 4.7e-5, no UV): 0.2669 and 0.2647 and 0.2402
WST-1 raw signal (Figure 5e) (conc 9.4e-5, 5mJ/cm2 UV): 0.1394 and 0.1367 and 0.1266
WST-1 raw signal (Figure 5e) (conc 9.4e-5, 125mJ/cm2 UV): 0.1442 and 0.1281 and 0.1307
WST-1 raw signal (Figure 5e) (conc 9.4e-5, no UV): 0.1612 and 0.1272 and 0.1365
WST-1 raw signal (Figure 5e) (conc 1.84E-07, 5mJ/cm2 UV): 1.7037 and 1.2125 and 1.5201
WST-1 raw signal (Figure 5e) (conc 1.84E-07, 125mJ/cm2 UV): 1.8011 and 1.8559 and 1.4258
WST-1 raw signal (Figure 5e) (conc 1.84E-07, no UV): 1.321 and 1.2585 and 1.2601
WST-1 raw signal (Figure 5e) (conc 3.67E-07, 5mJ/cm2 UV): 1.8869 and 1.5993 and 1.6043
WST-1 raw signal (Figure 5e) (conc 3.67E-07, 125mJ/cm2 UV): 2.4917 and 1.8093 and 1.3054
WST-1 raw signal (Figure 5e) (conc 3.67E-07, no UV): 1.2806 and 1.3851 and 1.3161
WST-1 raw signal (Figure 5e) (conc 7.34E-07, 5mJ/cm2 UV): 1.9796 and 1.8361 and 1.8217
WST-1 raw signal (Figure 5e) (conc 7.34E-07, 125mJ/cm2 UV): 2.3975 and 1.9653 and 1.3571
WST-1 raw signal (Figure 5e) (conc 7.34E-07, no UV): 1.5573 and 1.2554 and 1.5011

C[n+]1ccc(-c2c3nc(c(-c4cc[n+](C)cc4)c4ccc([nH]4)c(-c4cc[n+](C)cc4)c4nc(c(-c5cc[n+](C)cc5)c5ccc2[nH]5)C=C4)C=C3)cc1 [TMPYP4]
potentiation of UVA-induced cytotoxicity: not
